Data published in patent US8530519B2, “Method for promoting upper gastrointestinal bicarbonate secretion” (Sucampo AG, priority 2006, dated 2013).

What was measured:
[1] = test system: PG receptors such as EP and FP receptors; conditions: Journal of Ocular Pharmacology and Therapeutics 17(5), 433-441, 2001; cited from earlier work
[2] = test system: male Wistar rats; test: Effect on bicarbonate secretion into bile in rats after oral dosing; format: in vivo, rat
Protocol: The effect of Compound A (13,14-dihydro-15-keto-16,16-difluoro-18(S)-methyl-PGE1) on Gastrointestinal bicarbonate secretion was studied.
Seven weeks old male Wistar rats were used in this study. Compound A at a dose of 100 μg/kg was administered orally to the animals three times daily for 7 days. Control animals received an equal volume of the vehicle (distilled water containing 0.01% polysorbate 80 and 0.5% ethanol). On the next morning of the final administration (about 17 hours after the final administration), a polyethylene catheter (PE10, Becton Dickinson and Company) was inserted into the common bile duct of the animal under ether anesthesia. The animals were placed into a Borrmann's cage individually and allowed to recover from the anesthesia for 1 hour. Bile was collected for 1 hour between 1 and 2 hours after inserting the catheter. The amount of bicarbonate (HCO3^−) in the bile was measured with an automated pH/blood gas analyzer (model 170, Ciba Corning Diagnostics Corp.).

Structure (SMILES) | affinity for PG receptors such as EP and FP receptors [1] | amount of bicarbonate secreted into the bile compared with the control group ([2]; 100 μg/kg orally three times daily for 7 days, Wistar rats) | Bicarbonate secretion Mean ± S.E. ([2]; 100 μg/kg p.o., TID for 7 days, bile collected for 1 hour, about 17 hours after the final administration, n=7, *p < 0.05 compared with control group (control 10.16 ± 0.81))
CCCCCCCC(=O)CC[C@@H]1[C@@H](C/C=C\CCCC(=O)OC(C)C)[C@@H](O)C[C@H]1O [unoprostone isopropyl] | does not have affinity |  | 
CC[C@H](C)CC(F)(F)C(=O)CC[C@H]1[C@H](O)CC(=O)[C@@H]1CCCCCCC(=O)O [Compound A, 13,14-dihydro-15-keto-16,16-difluoro-18(S)-methyl-PGE1] |  | increased significantly | 13.33 ± 1.00* μmol/hr/100 g body weight
